# Measured values reported in patent US9169241B2, “Quinolinyloxyphenylsulfonamides” (Max-Planck-Gesellschaft Zur Forderung der Wissenschaften …, priority 2009, dated 2015).
# Read-outs that look alike come from different tables or passages of the source.
# Experiments:
# Assay type in all cases: cell-based
# [1] = test system: Hs578T; experiment: Wound healing migration assay; conditions: Homo sapiens, Hs-578T; HS578T cell line; Table Ib
# Summary of the method: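 Cells seeded at 150000/24 well, grown to monolayer overnight, scratched with a pipette tip, then treated with compound at 12.5, 6.25 or 3.125 μM versus DMSO. Stopped by crystal violet fixation at 48-72 h once control wounds closed; IC50 taken as 50% wound size between t0 and t48 or t72.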
# [2] = test system: cells; experiment: Boyden chamber migration assay (Table VI); conditions: Homo sapiens, Hs-578T, 16 h, Hs578T cells; 16 h migration
# Summary of the method: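 20000 cells seeded in the upper compartment in 0% FCS plus 0.1% BSA and left 16 h to migrate through […] membrane toward 10% FCS medium below. Non-migrated cells swabbed off; cells on the filter underside fixed and counted.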
# [3] = test system: tumor cell; experiment: Matrigel outgrowth assay/branching assay (Table Va)
# Summary of the method: (§1)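 Cells (5000/well) were seeded onto polymerized 3 mg/ml Matrigel with compound at 3.125, 1.56 or 0.78 μM, or DMSO. Imaging by inverted microscopy at 48, 72 and 96 h scored invasive branching. Only concentrations giving total branching inhibition counted as positive.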
# [4] = test system: U118; experiment: Matrigel outgrowth assay/branching assay; conditions: Table Vb, read-out: Total branching inhibition in Matrigel U118
# Summary of the method: as §1
# [5] = test system: SF126; experiment: Matrigel outgrowth assay/branching assay; conditions: Homo sapiens, SF-126, Table Vb, read-out: Total branching inhibition in Matrigel SF126
# Summary of the method: as §1
# [6] = test system: A172; experiment: Matrigel outgrowth assay/branching assay; conditions: Homo sapiens, A 172, Table Vb, read-out: Total branching inhibition in Matrigel A172
# Summary of the method: as §1
# [7] = test system: viable cells in culture; experiment: Cell viability assay at 10 μM (CellTiter-Glo, Table VII); conditions: compound 10 μM, 72 h;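 also: graded A 0-20%; B 21-40%; C 41-60%; D over 60% viable cells relative to DMSO control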
# Summary of the method: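 Viable cell number was measured with the CellTiter-Glo Luminescent Cell Viability Assay (Promega), following the manufacturer's protocol, which quantifies ATP as a marker of metabolically active cells. In 96-well plates, 1000 cells/well in 100 μl medium were exposed to compound at 10 μM, or to DMSO control, for 72 h. Values were calculated relative to DMSO-control ATP.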
# [8] = test system: C8161; experiment: Apoptosis assay (Cellomics, nucleus condensation); conditions: Homo sapiens, Table III, read-out: Apoptosis induction in C8161
# Summary of the method: (§2)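 Cells seeded at 5000 per well were stained live with Hoechst 33342, and nuclear condensation was quantified per nucleus by automated fluorescence imaging alongside cell counts. Compound was tested at 12.5, 6.25, 3.125, 1.56, 0.78 and 0.39 μM against a DMSO control, with reads at 24 h and 48 h.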
# [9] = test system: U138; experiment: Apoptosis assay (Cellomics, nucleus condensation); conditions: Table III, read-out: Apoptosis induction in U138
# Summary of the method: as §2
# [10] = test system: SF763; experiment: Apoptosis assay (Cellomics, nucleus condensation); conditions: Table III, read-out: Apoptosis induction in SF763
# Summary of the method: as §2
# [11] = test system: Hs578T; experiment: Apoptosis assay (Cellomics, nucleus condensation); conditions: Homo sapiens, Hs-578T, Table III, read-out: Apoptosis induction in Hs578T
# Summary of the method: as §2
# [12] = Homo sapiens, C8161 cells, read-out: Total branching inhibition in Matrigel C8161
# [13] = Homo sapiens, Hs-578T, Hs578T cells, read-out: Total branching inhibition in Matrigel Hs578T
# [14] = U118 cells, read-out: Total branching inhibition in Matrigel U118
# [15] = U138 cells, read-out: Total branching inhibition in Matrigel U138
# [16] = Homo sapiens, HCT-116, HCT116 def, read-out: percentage (%) of viable cells HCT 116def
# [17] = Homo sapiens, HCT-116, HCT116 wt, read-out: percentage (%) of viable cells HCT 116wt
# [18] = Homo sapiens, HT-29, HT29, read-out: percentage (%) of viable cells HT29
# [19] = Homo sapiens, NCI-H358, H358, read-out: percentage (%) of viable cells H358
# [20] = Homo sapiens, NCI-H1650, H1650, read-out: percentage (%) of viable cells H1650
# [21] = Homo sapiens, NCI-H1666, H1666, read-out: percentage (%) of viable cells H1666
# [22] = Homo sapiens, NCI-H1975, H1975, read-out: percentage (%) of viable cells H1975
# [23] = Homo sapiens, NCI-H1993, H1993, read-out: percentage (%) of viable cells H1993
# [24] = Homo sapiens, A549, read-out: percentage (%) of viable cells A549
# [25] = Homo sapiens, HCC827, read-out: percentage (%) of viable cells HCC827
# [26] = Homo sapiens, SW480, read-out: percentage (%) of viable cells SW480
# [27] = RKO, read-out: percentage (%) of viable cells RKO
IC50 [1],"IC50 [3, 12]","IC50 [3, 13]","IC50 [3, 14]","IC50 [3, 15]",Compound,IC100 [4],IC100 [5],IC100 [6],other results
≤ 12.5 µM,≤ 5 µM,≤ 5 µM,≤ 5 µM,≤ 5 µM,"COc1cc2c(Oc3ccc(NS(=O)(=O)c4cc(F)ccc4F)cc3F)ccnc2cc1OCCCN1CCN(C)CC1 [Example 12, 2,5-Difluoro-N-(3-fluoro-4-{6-methoxy-7-[3-(4-methyl-piperazin-1-yl)-propoxy]-quinolin-4-yloxy}-phenyl)-benzenesulfonamide]",≤ 12.5 µM,≤ 12.5 µM,≤ 12.5 µM,"IC50 [2]: ≤ 5 µM; viability at 10 µM [7, 16]: 21 to 40%; viability at 10 µM [7, 17]: 21 to 40%; viability at 10 µM [7, 18]: 21 to 40%; viability at 10 µM [7, 19]: 0 to 20%; viability at 10 µM [7, 20]: 21 to 40%; viability at 10 µM [7, 21]: 41 to 60%; viability at 10 µM [7, 22]: 41 to 60%; viability at 10 µM [7, 23]: 41 to 60%; viability at 10 µM [7, 24]: > 60%; viability at 10 µM [7, 25]: 21 to 40%; viability at 10 µM [7, 26]: 21 to 40%; viability at 10 µM [7, 27]: 0 to 20%; IC50 [8]: 12.5 to 50 µM"
≤ 12.5 µM,≤ 5 µM,≤ 5 µM,≤ 5 µM,5 to 50 µM,"COC(=O)c1sccc1S(=O)(=O)Nc1ccc(Oc2ccnc3cc(OCCCN4CCCC(C)C4)c(OC)cc23)c(F)c1 (stereo not drawn) [Example 66, 3-(3-Fluoro-4-{6-methoxy-7-[3-(3-methyl-piperidin-1-yl)-propoxy]-quinolin-4-yloxy}-phenylsulfamoyl)-thiophene-2-carboxylic acid methyl ester]",≤ 12.5 µM,≤ 12.5 µM,> 12.5 µM,–
≤ 12.5 µM,≤ 5 µM,5 to 50 µM,≤ 5 µM,5 to 50 µM,"COc1cc2c(Oc3ccc(NS(=O)(=O)c4ccccc4[N+](=O)[O-])cc3F)ccnc2cc1OCCCN1CCCCC1 [Example 7, N-{3-Fluoro-4-[6-methoxy-7-(3-piperidin-1-yl-propoxy)-quinolin-4-yloxy]-phenyl}-2-nitro-benzenesulfonamide]",≤ 12.5 µM,≤ 12.5 µM,> 12.5 µM,"IC50 [2]: ≤ 5 µM; viability at 10 µM [7, 16]: 21 to 40%; viability at 10 µM [7, 17]: 0 to 20%; viability at 10 µM [7, 18]: 0 to 20%; viability at 10 µM [7, 19]: 0 to 20%; viability at 10 µM [7, 20]: 0 to 20%; viability at 10 µM [7, 21]: 21 to 40%; viability at 10 µM [7, 22]: 21 to 40%; viability at 10 µM [7, 23]: 21 to 40%; viability at 10 µM [7, 24]: 41 to 60%; viability at 10 µM [7, 25]: 0 to 20%; viability at 10 µM [7, 26]: 0 to 20%; viability at 10 µM [7, 27]: 0 to 20%; IC50 [9]: ≤ 12.5 µM; IC50 [10]: ≤ 12.5 µM; IC50 [8]: ≤ 12.5 µM; IC50 [11]: ≤ 12.5 µM"
≤ 12.5 µM,–,–,–,–,"COc1cc2c(Oc3ccc(NS(=O)(=O)c4ccc(F)c(F)c4F)cc3F)ccnc2cc1OCCCN1CCCC(C)C1 (stereo not drawn) [Example 49, 2,3,4-Trifluoro-N-(3-fluoro-4-{6-methoxy-7-[3-(3-methyl-piperidin-1-yl)-propoxy]-quinolin-4-yloxy}-phenyl)-benzenesulfonamide]",> 12.5 µM,> 12.5 µM,> 12.5 µM,–
≤ 12.5 µM,–,–,–,–,"COc1cc2c(Oc3ccc(NS(=O)(=O)c4c(F)cccc4F)cc3F)ccnc2cc1OCCCN1CCN(C)CC1 [Example 110, 2,6-Difluoro-N-(3-fluoro-4-{6-methoxy-7-[3-(4-methyl-piperazin-1-yl)-propoxy]-quinolin-4-yloxy}-phenyl)-benzenesulfonamide]",≤ 12.5 µM,≤ 12.5 µM,> 12.5 µM,–
≤ 12.5 µM,–,–,–,–,"COc1cc2c(Oc3ccc(NS(=O)(=O)c4c(Cl)cccc4Cl)cc3Cl)ccnc2cc1OCCCN1CCN(C)CC1 [Example 119, 2,6-Dichloro-N-(3-chloro-4-{6-methoxy-7-[3-(4-methyl-piperazin-1-yl)-propoxy]-quinolin-4-yloxy}-phenyl)-benzenesulfonamide]",≤ 12.5 µM,≤ 12.5 µM,≤ 12.5 µM,–
≤ 12.5 µM,–,–,–,–,"COC(=O)c1sccc1S(=O)(=O)Nc1ccc(Oc2ccnc3cc(OCCCN(C)C)c(OC)cc23)c(F)c1 [Example 184, 3-{4-[7-(3-Dimethylamino-propoxy)-6-methoxy-quinolin-4-yloxy]-3-fluoro-phenylsulfamoyl}-thiophene-2-carboxylic acid methyl ester]",≤ 12.5 µM,≤ 12.5 µM,> 12.5 µM,–
≤ 12.5 µM,–,–,–,–,"COc1cc2c(Oc3ccc(NS(=O)(=O)c4c(F)cccc4F)cc3F)ccnc2cc1OCCCN1CCCCC1 [Example 11, 2,6-Difluoro-N-{3-fluoro-4-[6-methoxy-7-(3-piperidin-1-yl-propoxy)-quinolin-4-yloxy]-phenyl}-benzenesulfonamide]",> 12.5 µM,> 12.5 µM,> 12.5 µM,–
≤ 12.5 µM,–,–,–,–,"COc1cc2c(Oc3ccc(NS(=O)(=O)c4c(Cl)cccc4Cl)cc3F)ccnc2cc1OCCN1CCOCC1 [Example 104, 2,6-Dichloro-N-{3-fluoro-4-[6-methoxy-7-(2-morpholin-4-yl-ethoxy)-quinolin-4-yloxy]-phenyl}-benzenesulfonamide]",> 12.5 µM,> 12.5 µM,> 12.5 µM,–
≤ 12.5 µM,–,–,–,–,"COc1cc2c(Oc3ccc(NS(=O)(=O)c4c(Cl)cccc4Cl)cc3F)ccnc2cc1OCCCN1CCCC(C)C1 (stereo not drawn) [Example 51, 2,6-Dichloro-N-(3-fluoro-4-{6-methoxy-7-[3-(3-methyl-piperidin-1-yl)-propoxy]-quinolin-4-yloxy}-phenyl)-benzenesulfonamide]",≤ 12.5 µM,≤ 12.5 µM,> 12.5 µM,–
≤ 12.5 µM,–,–,–,–,"COc1cc2c(Oc3c(Cl)cc(NS(=O)(=O)c4c(F)cccc4F)cc3Cl)ccnc2cc1OCCCN1CCC(C)CC1 [Example 209, N-(3,5-Dichloro-4-{6-methoxy-7-[3-(4-methyl-piperidin-1-yl)-propoxy]-quinolin-4-yloxy}-phenyl)-2,6-difluoro-benzenesulfonamide]",≤ 12.5 µM,≤ 12.5 µM,≤ 12.5 µM,–
–,≤ 5 µM,≤ 5 µM,≤ 5 µM,5 to 50 µM,"COc1cc2c(Oc3ccc(NS(=O)(=O)c4ccccc4C(F)(F)F)cc3F)ccnc2cc1OCCCN1CCN(C)CC1 [Example 24, N-(3-Fluoro-4-{6-methoxy-7-[3-(4-methyl-piperazin-1-yl)-propoxy]-quinolin-4-yloxy}-phenyl)-2-trifluoromethyl-benzenesulfonamide]",≤ 12.5 µM,≤ 12.5 µM,≤ 12.5 µM,IC50 [2]: ≤ 5 µM; IC50 [8]: ≤ 12.5 µM
